# Results: patent publication US20220259193A1, “KCNT1 INHIBITORS AND METHODS OF USE” (Praxis Precision Medicines, Inc., priority 2019, published 2022)
# pIC50: −log10 of the molar value.
# Target: T1, KCNT1 (KNa1.1, Slack) (Homo sapiens, UniProt Q5JUK3)
# T1 construct: expressed in transfected cells; host or cells: HEK-TREX (tetracycline-inducible HEK cell line)
# T1 sequence (Q5JUK3 1-1230): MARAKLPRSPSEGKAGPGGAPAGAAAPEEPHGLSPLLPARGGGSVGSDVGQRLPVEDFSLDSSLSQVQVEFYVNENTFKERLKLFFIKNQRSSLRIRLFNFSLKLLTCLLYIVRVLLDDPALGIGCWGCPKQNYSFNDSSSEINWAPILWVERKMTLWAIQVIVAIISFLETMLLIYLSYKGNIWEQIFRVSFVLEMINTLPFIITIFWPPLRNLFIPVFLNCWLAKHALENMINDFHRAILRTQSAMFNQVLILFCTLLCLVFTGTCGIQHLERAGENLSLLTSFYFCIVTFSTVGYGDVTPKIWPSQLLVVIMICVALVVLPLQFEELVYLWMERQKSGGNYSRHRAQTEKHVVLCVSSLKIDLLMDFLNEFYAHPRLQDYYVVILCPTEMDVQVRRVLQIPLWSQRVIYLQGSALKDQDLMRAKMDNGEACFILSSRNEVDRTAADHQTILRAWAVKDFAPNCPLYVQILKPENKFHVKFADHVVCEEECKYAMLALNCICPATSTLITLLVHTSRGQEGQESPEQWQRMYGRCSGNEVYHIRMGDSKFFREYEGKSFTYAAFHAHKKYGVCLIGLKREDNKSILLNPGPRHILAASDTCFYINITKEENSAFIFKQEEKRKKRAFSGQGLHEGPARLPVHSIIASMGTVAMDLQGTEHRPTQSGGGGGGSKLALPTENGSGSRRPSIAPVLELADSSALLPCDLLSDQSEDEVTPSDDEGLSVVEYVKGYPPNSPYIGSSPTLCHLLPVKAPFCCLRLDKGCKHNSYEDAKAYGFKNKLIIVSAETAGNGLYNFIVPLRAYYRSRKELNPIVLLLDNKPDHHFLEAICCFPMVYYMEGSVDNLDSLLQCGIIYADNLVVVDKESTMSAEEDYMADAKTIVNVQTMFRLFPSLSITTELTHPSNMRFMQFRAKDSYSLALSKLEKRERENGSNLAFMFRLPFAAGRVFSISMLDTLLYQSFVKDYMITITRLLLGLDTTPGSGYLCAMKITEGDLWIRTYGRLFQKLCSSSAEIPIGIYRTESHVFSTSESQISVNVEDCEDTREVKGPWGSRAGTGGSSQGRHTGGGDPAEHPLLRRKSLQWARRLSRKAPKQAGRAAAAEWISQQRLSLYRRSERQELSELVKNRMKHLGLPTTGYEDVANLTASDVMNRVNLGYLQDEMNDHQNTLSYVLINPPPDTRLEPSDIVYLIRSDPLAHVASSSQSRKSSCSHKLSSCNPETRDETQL
# Test: KCNT1 patch clamp assay (SyncroPatch 384PE automated patch clamp)
# Assay type: cell-based
# Conditions: tetracycline inducible HEK-TREX cell line; perforated patch; step from −80 mV to 0 mV; room temperature; read-out: KCNT1-WT IC50
# Outline: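 Tetracycline-inducible HEK-TREX cells; perforated-patch (10 μM escin) population recordings at room temperature, holding −80 mV with 100 ms step to 0 mV.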
row,SMILES,pIC50
1,"C[C@H](NC(=O)c1cc(C(F)(F)F)nn1CCN1CCCC1)c1nc(-c2ccnc(C(F)(F)F)c2)no1 [Compound 257, (S)-1-(2-(pyrrolidin-1-yl)ethyl)-3-(trifluoromethyl)-N-(1-(3-(2-(trifluoromethyl)pyridin-4-yl)-1,2,4-oxadiazol-5-yl)ethyl)-1H-pyrazole-5-carboxamide]",≥ 6.00
2,"CC(C)OCc1cc(-c2noc([C@H](C)NC(=O)c3cc(C(F)(F)F)nn3C)n2)ccn1 [Compound 259, N-[(1S)-1-[3-[2-(isopropoxymethyl)-4-pyridyl]-1,2,4-oxadiazol-5-yl]ethyl]-2-methyl-5-(trifluoromethyl)pyrazole-3-carboxamide]",4.70 to 6.00
3,"C[C@H](NC(=O)c1cc(C(F)(F)F)nn1C)c1nc(-c2ccnc(CN(C)C)c2)no1 [Compound 260, (S)—N-(1-(3-(2-((dimethylamino)methyl)pyridin-4-yl)-1,2,4-oxadiazol-5-yl)ethyl)-1-methyl-3-(trifluoromethyl)-1H-pyrazole-5-carboxamide]",≤ 4.70
4,"C[C@H](NC(=O)c1cc(C(F)(F)F)nn1C)c1nc(-c2ccnc(CN3CCCC3)c2)no1 [Compound 261, (S)-1-methyl-N-(1-(3-(2-(pyrrolidin-1-ylmethyl)pyridin-4-yl)-1,2,4-oxadiazol-5-yl)ethyl)-3-(trifluoromethyl)-1H-pyrazole-5-carboxamide]",≤ 4.70
5,"COC1(c2cc(-c3noc([C@H](C)NC(=O)OC(C)(C)C)n3)ccn2)CC1 [Compound 262, tert-butyl (S)-(1-(3-(2-(1-methoxycyclopropyl)pyridin-4-yl)-1,2,4-oxadiazol-5-yl)ethyl)carbamate]",4.70 to 6.00
6,"COC1(c2cc(-c3noc([C@H](C)NC(=O)c4cc(C(F)(F)F)nn4C)n3)ccn2)CC1 [Compound 263, (S)—N-(1-(3-(2-(1-methoxycyclopropyl)pyridin-4-yl)-1,2,4-oxadiazol-5-yl)ethyl)-1-methyl-3-(trifluoromethyl)-1H-pyrazole-5-carboxamide]",4.70 to 6.00
7,"C[C@H](NC(=O)c1cc(C(F)(F)F)nn1C)c1nc(-c2ccnc(CS(C)(=O)=O)c2)no1 [Compound 264, 2-methyl-N-[(1S)-1-[3-[2-(methylsulfonylmethyl)-4-pyridyl]-1,2,4-oxadiazol-5-yl]ethyl]-5-(trifluoromethyl)pyrazole-3-carboxamide]",≤ 4.70
8,"CC(C)c1cc(-c2noc([C@H](C)NC(=O)c3cc(C(F)(F)F)nn3C)n2)ccn1 [Compound 269, (S)—N-(1-(3-(2-isopropylpyridin-4-yl)-1,2,4-oxadiazol-5-yl)ethyl)-1-methyl-3-(trifluoromethyl)-1H-pyrazole-5-carboxamide]",≥ 6.00
9,"C[C@H](NC(=O)OC(C)(C)C)c1nc(-c2ccnc(C3(C)CC3)c2)no1 [Compound 272, tert-butyl (S)-(1-(3-(2-(1-methylcyclopropyl)pyridin-4-yl)-1,2,4-oxadiazol-5-yl)ethyl)carbamate]",4.70 to 6.00
10,"C[C@H](NC(=O)OC(C)(C)C)c1nc(-c2cccc(F)c2)no1 [Compound 281, tert-butyl N-[(1S)-1-[3-(3-fluorophenyl)-1,2,4-oxadiazol-5-yl]ethyl]carbamate]",4.70 to 6.00
11,"C[C@@H](NC(=O)OC(C)(C)C)c1nc(-c2cccc(F)c2)no1 [Compound 282, tert-butyl (R)-(1-(3-(3-fluorophenyl)-1,2,4-oxadiazol-5-yl)ethyl)carbamate]",4.70 to 6.00
12,"COc1cccc(-c2noc([C@H](C)NC(=O)OC(C)(C)C)n2)c1 [Compound 283, tert-butyl (S)-(1-(3-(3-methoxyphenyl)-1,2,4-oxadiazol-5-yl)ethyl)carbamate]",4.70 to 6.00
13,"CC[C@H](NC(=O)OC(C)(C)C)c1nc(-c2ccnc(C)c2)no1 [Compound 284, tert-butyl (S)-(1-(3-(2-methylpyridin-4-yl)-1,2,4-oxadiazol-5-yl)propyl)carbamate]",4.70 to 6.00
14,"Cc1ccnc(-c2noc([C@H](C)NC(=O)OC(C)(C)C)n2)c1 [Compound 285, tert-butyl (S)-(1-(3-(4-methylpyridin-2-yl)-1,2,4-oxadiazol-5-yl)ethyl)carbamate]",≤ 4.70
15,"CC(C)Oc1cc(-c2noc([C@H](C)NC(=O)OC(C)(C)C)n2)ccn1 [Compound 286, tert-butyl (S)-(1-(3-(2-isopropoxypyridin-4-yl)-1,2,4-oxadiazol-5-yl)ethyl)carbamate]",≥ 6.00
16,"COc1cc(-c2noc([C@H](C)NC(=O)OC(C)(C)C)n2)cc(C)n1 [Compound 287, tert-butyl (S)-(1-(3-(2-methoxy-6-methylpyridin-4-yl)-1,2,4-oxadiazol-5-yl)ethyl)carbamate]",≥ 6.00

# More lines, now with the values ahead:
row,pIC50,SMILES
1,4.70 to 6.00,"C[C@H](NC(=O)c1cc(C(F)(F)F)nn1C)c1nc(-c2ccnc(COC3CC3)c2)no1 [Compound 254, (S)—N-(1-(3-(2-(cyclopropoxymethyl)pyridin-4-yl)-1,2,4-oxadiazol-5-yl)ethyl)-1-methyl-3-(trifluoromethyl)-1H-pyrazole-5-carboxamide]"
2,4.70 to 6.00,"C[C@H](NC(=O)c1cc(C(F)(F)F)nn1C)c1nc(-c2ccnc(CO)c2)no1 [Compound 258, N-[(1S)-1-[3-[2-(hydroxymethyl)-4-pyridyl]-1,2,4-oxadiazol-5-yl]ethyl]-2-methyl-5-(trifluoromethyl)pyrazole-3-carboxamide]"
3,≥ 6.00,"CC[C@@H](NC(=O)c1cc(C(F)(F)F)nn1C)c1nc(-c2ccnc(C3CC3)c2)no1 [Compound 266, N-[(1R)-1-[3-(2-cyclopropyl-4-pyridyl)-1,2,4-oxadiazol-5-yl]propyl]-2-methyl-5-(trifluoromethyl)pyrazole-3-carboxamide]"
4,4.70 to 6.00,"C[C@H](NC(=O)c1cc(C(F)(F)F)nn1C)c1nc(-c2ccnc(C#N)c2)no1 [Compound 267, (S)—N-(1-(3-(2-cyanopyridin-4-yl)-1,2,4-oxadiazol-5-yl)ethyl)-1-methyl-3-(trifluoromethyl)-1H-pyrazole-5-carboxamide]"
5,≥ 6.00,"CCc1cc(-c2noc([C@H](C)NC(=O)c3cc(C(F)(F)F)nn3C)n2)ccn1 [Compound 268, (S)—N-(1-(3-(2-ethylpyridin-4-yl)-1,2,4-oxadiazol-5-yl)ethyl)-1-methyl-3-(trifluoromethyl)-1H-pyrazole-5-carboxamide]"
6,≥ 6.00,C[C@H](NC(=O)c1ccnn1C1CCCC1)c1nc(-c2ccnc(C3CC3)c2)no1 [Compound 270]
7,≥ 6.00,C[C@H](NC(=O)OCc1ccccc1)c1nc(-c2ccnc(C3CC3)c2)no1 [Compound 273]
8,≥ 6.00,CCOC(=O)N[C@@H](C)c1nc(-c2ccnc(C3CC3)c2)no1 [Compound 274]
9,≥ 6.00,CC(C)COC(=O)N[C@@H](C)c1nc(-c2ccnc(C3CC3)c2)no1 [Compound 275]
10,≥ 6.00,C[C@H](NC(=O)OC1CCCC1)c1nc(-c2ccnc(C3CC3)c2)no1 [Compound 276]
11,4.70 to 6.00,CC(C)OC(=O)N[C@@H](C)c1nc(-c2ccnc(C3CC3)c2)no1 [Compound 277]
12,≥ 6.00,"C[C@H](NC(=O)c1ccnn1Cc1ccccc1)c1nc(-c2ccnc(C3CC3)c2)no1 [Compound 280, (S)-1-benzyl-N-(1-(3-(2-cyclopropylpyridin-4-yl)-1,2,4-oxadiazol-5-yl)ethyl)-1H-pyrazole-5-carboxamide]"
13,≥ 6.00,"C[C@H](NC(=O)OC(C)(C)C)c1nc(-c2ccnc(C3CC3)c2)no1 [Compound 288, tert-butyl (S)-(1-(3-(2-cyclopropylpyridin-4-yl)-1,2,4-oxadiazol-5-yl)ethyl)carbamate]"
